From PubChem BioAssay (NCI)
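Interpolation was linear, between the two tested concentrations surrounding the appropriate level; five concentrations were tested over 48 hours in 96-well plates. Abbreviation: GI50, concentration required for 50% inhibition of growth. Definition used: TGI = concentration required for complete inhibition of growth.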

Tests used:
Test in all cases: growth of human tumour cells (NCI), 48 h
[1] = test system: A549 NSCLC
[2] = test system: EKVX NSCLC
[3] = test system: HL-60(TB) leukemia
[4] = test system: HOP-92 NSCLC
[5] = test system: NCI-H226 lung
[6] = test system: UO-31 renal
[7] = test system: UACC-62 melanoma
[8] = test system: UACC-257 melanoma
[9] = test system: MALME-3M melanoma
[10] = test system: HCT-15 colon
[11] = test system: SR leukemia
[12] = test system: BT-549 breast
[13] = test system: 786-0 renal
[14] = test system: DU-145 prostate
[15] = test system: MDA-MB-231 breast
[16] = test system: CCRF-CEM leukemia
[17] = test system: SK-MEL-2 melanoma
[18] = test system: SF-539 CNS
[19] = test system: RPMI-8226 leukemia
[20] = test system: A498 renal
[21] = test system: OVCAR-4 ovarian
[22] = test system: KM12 colon
[23] = test system: K-562 leukemia
[24] = test system: M14 melanoma
[25] = test system: OVCAR-3 ovarian
[26] = test system: OVCAR-5 ovarian
[27] = test system: RXF 393 renal
[28] = test system: NCI-H522 lung
[29] = test system: SF-295 CNS
[30] = test system: PC-3 prostate
[31] = test system: COLO 205 colon
[32] = test system: LOX IMVI melanoma
[33] = test system: SNB-19 CNS
[34] = test system: NCI-H23 lung
[35] = test system: SW-620 colon
[36] = test system: T-47D breast
[37] = test system: SK-MEL-5 melanoma
[38] = test system: HOP-62 NSCLC
[39] = test system: SNB-75 CNS
[40] = test system: MCF7 breast
[41] = test system: HT29 colon
[42] = test system: HS 578T breast
[43] = test system: HCT-116 colon
[44] = test system: HCC-2998 colon
[45] = test system: MOLT-4 leukemia
[46] = test system: TK-10 renal
[47] = test system: IGROV1 ovarian
[48] = test system: OVCAR-8 ovarian
[49] = test system: ACHN renal
[50] = test system: CAKI-1 renal
[51] = test system: U251 CNS
[52] = test system: SF-268 CNS
[53] = test system: NCI-H460 lung
[54] = test system: SK-OV-3 ovarian
[55] = test system: NCI/ADR-RES ovarian
[56] = test system: SN12C renal
[57] = test system: MDA-MB-435
[58] = test system: SK-MEL-28 melanoma

## CC(=O)c1c(Nc2cccc(F)c2)[nH]c2c(Cl)cc(Cl)c(Cl)c2c1=O
[1]
  GI50: 479 nM
  TGI: > 100000 nM
[2]
  GI50: 333 nM
  TGI: > 100000 nM
[3]
  GI50: 337 nM
  TGI: 1540 nM
[4]
  GI50: 88.4 nM
  TGI: 477 nM
[5]
  GI50: 343 nM
  TGI: 2930 nM
[6]
  GI50: 216 nM
  TGI: 5940 nM
[7]
  GI50: 253 nM
  TGI: 793 nM
[8]
  GI50: 363 nM
  TGI: 3150 nM
[9]
  GI50: 264 nM
  TGI: 1020 nM
[10]
  GI50: 296 nM
  TGI: 2230 nM
[11]
  GI50: 697 nM
  TGI: > 100000 nM
[12]
  GI50: 457 nM
  TGI: 8310 nM
[13]
  GI50: 471 nM
  TGI: > 100000 nM
[14]
  GI50: 447 nM
  TGI: > 100000 nM
[15]
  GI50: 259 nM
  TGI: 1940 nM
[16]
  GI50: 346 nM
  TGI: > 100000 nM
[17]
  GI50: 292 nM
  TGI: 1290 nM
[18]
  GI50: 369 nM
[19]
  GI50: 232 nM
  TGI: 2180 nM
[20]
  GI50: 137 nM
  TGI: 611 nM
[21]
  GI50: 361 nM
  TGI: > 100000 nM
[22]
  GI50: 346 nM
[23]
  GI50: 307 nM
  TGI: > 100000 nM
[24]
  GI50: 366 nM
  TGI: 7130 nM
[25]
  GI50: 299 nM
  TGI: > 100000 nM
[26]
  GI50: 1220 nM
  TGI: > 100000 nM
[27]
  GI50: 326 nM
  TGI: 1950 nM
[28]
  GI50: 289 nM
  TGI: > 100000 nM
[29]
  GI50: 336 nM
  TGI: 1810 nM
[30]
  GI50: 257 nM
  TGI: 17600 nM
[31]
  GI50: 440 nM
  TGI: 2480 nM
[32]
  GI50: 487 nM
  TGI: 12800 nM
[33]
  GI50: 384 nM
  TGI: > 100000 nM
[34]
  GI50: 262 nM
  TGI: 1940 nM
[35]
  GI50: 366 nM
  TGI: > 100000 nM
[36]
  GI50: 288 nM
[37]
  GI50: 184 nM
  TGI: 433 nM
[38]
  GI50: 418 nM
  TGI: 11000 nM
[39]
  GI50: 508 nM
  TGI: > 22000 nM
[40]
  GI50: 309 nM
  TGI: > 100000 nM
[41]
  GI50: 387 nM
  TGI: > 100000 nM
[42]
  GI50: 278 nM
  TGI: > 100000 nM
[43]
  GI50: 302 nM
  TGI: > 44100 nM
[44]
  GI50: 333 nM
  TGI: > 100000 nM
[45]
  GI50: 356 nM
[46]
  GI50: 554 nM
  TGI: > 100000 nM
[47]
  GI50: 440 nM
  TGI: > 100000 nM
[48]
  GI50: 363 nM
  TGI: > 100000 nM
[49]
  GI50: 411 nM
  TGI: > 28600 nM
[50]
  GI50: 259 nM
  TGI: 1830 nM
[51]
  GI50: 270 nM
  TGI: > 100000 nM
[52]
  GI50: 333 nM
  TGI: > 100000 nM
[53]
  GI50: 360 nM
  TGI: > 100000 nM
[54]
  GI50: 263 nM
  TGI: 4860 nM
[55]
  GI50: 297 nM
  TGI: 9890 nM
[56]
  GI50: 289 nM
[57]
  GI50: 425 nM
  TGI: 8550 nM
[58]
  GI50: 377 nM
  TGI: 4830 nM
